Structures can show the parent of a compound that is named as a salt.
Legend:
[1] = Hygroscopic test under conditions of 25° C. and 75% RH (Test Example 1); type: physicochemical
Experimental: Hygroscopic test of 2-hydrochloride and 3/2-hydrochloride under conditions of 25° C. and 75% RH
A humidity conditioning solution was prepared by using a saturated aqueous solution of sodium chloride, and the solution thus prepared was placed in a humidistat, and temperature-moisture conditions at 25° C. were adjusted. 0.4 g of 2-hydrochloride and 0.2 g of 3/2-hydrochloride were weighed respectively in a weighing bottle to prepare test samples, and the test samples were subjected to hygroscopic test under the above adjusted temperature-moisture conditions to measure a water content and a decomposed material content as a lapse of time and to compare hygroscopicity and stability of the test samples.

[2] = Pharmaceutical effect, stated in words
[3] = Physical properties and stability of the hydrochlorides, stated in words
[4] = Comparison of biological dynamics in a dog, 10 mg/kg oral administration by capsules; type: in vivo; conditions: for AUC (0-.infin.) / Cmax: 10 mg/kg oral administration by capsules, 10 mg/kg
Experimental: Further, the compound (1) and its 3/2-hydrochloride (2) were compared with regard to biological dynamics in a dog. […] Result: (10 mg/kg oral administration by capsules)

[5] = 10 mg/kg oral by capsules, ratio to compound (1)

SMILES | Water content ([1]; Time 0) | Water content ([1]; Time 1) | Increased decomposed material content ([1]; Time 24) | Water content ([1]; Time 24) | Increased decomposed material content ([1]; Time 48) | Water content ([1]; Time 48) | degraded ([1]; solid, 75% rh, Time 1, read-out: Increased decomposed material content) | pharmaceutical effect [2] | hygroscopicity [3] | decomposition in a methanol solvent ([3]; methanol solvent) | AUC (0-.infin.) [4] | Cmax [4] | electrostatic charging of the crystal [3] | solubility [3] | Increased decomposed material content ([1]; Time 1) | area under the curve (AUC) of time-concentration in blood (0-.infin.), times more preferable as compared with the compound (1) [4, 5] | maximum concentration in blood (Cmax), times higher as compared with the compound (1) [4, 5]
COc1ccc(CNc2cn[nH]c(=O)c2Cl)cc1OCC(=O)N1CCN(Cc2ccccc2)CC1 [2-hydrochloride, 2-Hydrochloride of 4-chloro-5-[3-(4-benzylpiperazin-1-yl)carbonylmethoxy-4-methoxybenzylamino]-3 (2H) -pyridazinone] | 0.93% | 4.17% | 1.75% | 5.60% | 11.78% | 9.45% | 0.08% | excellent pharmaceutical effect | highly hygroscopic | rapidly decomposed in a methanol solvent |  |  |  |  |  |  | 
COc1ccc(CNc2cn[nH]c(=O)c2Cl)cc1OCC(=O)N1CCN(Cc2ccccc2)CC1 [Compound 1, 4-chloro-5-[3-(4-benzylpiperazin-1-yl)carbonylmethoxy-4-methoxybenzylamino]-3(2H)-pyridazinone] |  |  |  |  |  |  |  |  |  |  | 844.3 ng·h/mL | 249.7 ng/mL |  |  |  |  | 
COc1ccc(CNc2cn[nH]c(=O)c2Cl)cc1OCC(=O)N1CCN(Cc2ccccc2)CC1 [1-hydrochloride] |  |  |  |  |  |  |  |  | high hygroscopicity |  |  |  | easily electrostatically charged | poor in solubility |  |  | 
COc1ccc(CNc2cn[nH]c(=O)c2Cl)cc1OCC(=O)N1CCN(Cc2ccccc2)CC1 [Compound 2, 3/2-Hydrochloride of 4-chloro-5-[3-(4-benzylpiperazin-1-yl)carbonylmethoxy-4-methoxybenzylamino]-3 (2H) -pyridazinone] | 2.03% | 2.42% | 0.17% | 2.34% | 0.18% | 2.57% |  | equivalent to that of 2-hydrochloride |  |  | 1998.3 ng·h/mL | 1349.0 ng/mL |  |  | 0.06% | 2.3 times | 5.4 times

Source: patent US6310065A, “Pyridazinone hydrochloride compound and method for producing the same” (Nissan Chemical Industries, Ltd., priority 1998, dated 2001)
